# Assay results from PubChem BioAssay AID2060506 (Molecular Pharmacology Branch, DTP, NCI, 2025).
# pIC50: −log10 of the molar value.
# System: 598228-144-R-J1-PDC complex spheroid viability
# Assay: Anticancer human tumor 598228-144-R-J1-PDC patient-derived serous endometrial adenocarcinoma cell line growth inhibition [GQUAD]
# Conditions: for pIC50: curve of first compound; for viability, T/C: stronger effect = lower value
# Excerpt: DNA G-quadruplex Stabilizer Agents in Combinations in Complex Spheroids
# A high-throughput screen of multi-cell type tumor spheroids was designed to identify active combinations of DNA G-quadruplex stabilizer agents and targeted small molecules. Complex spheroids include a stromal component modeled by human endothelial cells (HUVEC) and fibroblasts modeled by human mesenchymal stem cells (MSCs). The concentration ranges selected for each drug and investigational agent were based upon clinically achievable concentrations if the clinical Cmax of the agent was known.
# Compounds. The drugs and investigational agents: pidnarulex (CX-5461; NSC782164), APTO-253 (NSC789042), BRACO-19 (NSC847499), peposertib (NSC802822), ceralasertib (NSC780249), elimusertib (NSC800525), camonsertib (NSC841442), AZD-1390 (NSC803789), olaparib (NSC753686), talazoparib (NSC767125), ART-558 (NSC835418), sotorasib (NSC818433), MRTX-1133 (NSC836407), SN-38 (NSC673596), topotecan (NSC609699), etoposide (NSC141540), doxorubicin (NSC123127), gemcitabine (NSC613327), 5-fluorouracil (NSC19893), paclitaxel (NSC125973), vemurafenib (NSC761431), panobinostat (NSC761190), R-306465 (JNJ-16241199; NSC773264), adavosertib (NSC754352), TP-3654 (NSC805149), carboplatin (NSC241240), KSQ-4279 (NSC840948), and staurosporine (NSC755774) were obtained from the National Cancer Institute (NCI) Developmental Therapeutics Program Chemical Repository (34). The FDA-approved anticancer drug set is available from the NCI Developmental Therapeutics Program. […] The stock solutions were prepared in dimethyl sulfoxide (DMSO, Sigma-Aldrich, St. Louis, MO, cat. D2650) at 800-fold the tested concentration and stored at -70 degrees C prior to their use. All drugs and investigational agents were tested over a range starting from a high concentration at or near the clinical Cmax and decreasing in half-log increments. If the clinical Cmax for an agent had not been determined, the highest concentration tested was 10 microM.
# 2.3 Cell Culture. All cells were maintained in an incubator at 37 degrees C and 5% CO2 with 95% humidity. The PDC lines were cultured according to standard operating procedures established by the NCI PDMR. All PDCs were thawed and cultured in Matrigel-coated flasks prepared with a working solution of 1X Ham's F-12 nutrient mix, without supplementation (Invitrogen, cat. 11765054), 100 U/mL penicillin-streptomycin (Invitrogen, cat. 15140122), and 2.5% Matrigel (Corning Inc., cat. 354248) for the first three passages. The 857933-349-R-J2-PDC line was cultured in 6C/Colon 1B media, which includes advanced DMEM/F-12 (Thermo Fisher Scientific, cat. 12634028), 10 mM HEPES (Thermo Fisher Scientific, cat. 15630080), 1X GlutaMAX supplement (Thermo Fisher Scientific, cat. 35050061), 0.1 mg/mL primocin (InvivoGen, cat. ant-pm-2), 10% defined fetal bovine serum, heat inactivated (HyClone Laboratories Inc., cat. SH30070.03HI), 50% L-WRN conditioned media (ATCC, cat. CRL-3276), 1.25 mM N-Acetyl-L-cysteine (Sigma-Aldrich, cat. A9165), 10 mM nicotinamide (Sigma-Aldrich, cat. N0636), 1X B-27 supplement (Thermo Fisher Scientific, cat. 17504044), 1X N-2 supplement (Thermo Fisher Scientific, cat. 17502048), 10 microM Y-27632 dihydrochloride (Tocris Bioscience, cat. 1254), and 50 ng/mL human EGF recombinant protein (Thermo Fisher Scientific, cat. PHG0311). The 485176-168-R4-J1-PDC line was cultured in Panc media, which includes all 6C/Colon 1B media components plus 100 ng/mL human FGF-10 (Thermo Fisher Scientific, cat. 100-26), 500 nM SB-431542 (Selleckchem, cat. S1067), and gastrin (Tocris, cat. 3006).
# […]
# [1] = second compound 0.0316 µM, first compound 0.0316 µM
# [2] = second compound 0.0316 µM, first compound 0.316 µM
# [3] = second compound 0.1 µM, first compound 0.0316 µM
# [4] = second compound 0.1 µM, first compound 0.316 µM
# [5] = second compound 0.316 µM, first compound 0.0316 µM
# [6] = second compound 0.316 µM, first compound 0.316 µM
# [7] = second compound 1 µM, first compound 0.0316 µM
# [8] = second compound 1 µM, first compound 0.316 µM
# [9] = second compound 3.16 µM, first compound 0.0316 µM
# [10] = second compound 3.16 µM, first compound 0.316 µM
# [11] = second compound 10 µM, first compound 0.0316 µM
# [12] = second compound 10 µM, first compound 0.316 µM
# 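Further: spheroids exposed to the agents for one week before reading.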
# 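Wherever viability, T/C is given: percent of vehicle DMSO control viability so 100% = untreated growth.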
smiles,measurement,setting,value
CC(C)n1c(=O)n(C)c2cnc3cc(F)c(-c4ccc(OCCCN5CCCCC5)nc4)cc3c21 + CN(C)c1ccc(Nc2c3ccc(NC(=O)CCN4CCCC4)cc3nc3cc(NC(=O)CCN4CCCC4)ccc23)cc1,pIC50,second compound 0.0316 µM,5.00
same,pIC50,second compound 0.1 µM,< 5.00
same,pIC50,second compound 0.316 µM,< 5.00
same,pIC50,second compound 1 µM,5.08
same,pIC50,second compound 3.16 µM,5.16
same,pIC50,second compound 10 µM,6.66
same,"viability, T/C",[1],112%
same,"viability, T/C","second compound 0.0316 µM, first compound 0.1 µM",79.6%
same,"viability, T/C",[2],102%
same,"viability, T/C","second compound 0.0316 µM, first compound 1 µM",93%
same,"viability, T/C","second compound 0.0316 µM, first compound 3.16 µM",78.1%
same,"viability, T/C","second compound 0.0316 µM, first compound 10 µM",49.7%
same,"viability, T/C",[3],117%
same,"viability, T/C","second compound 0.1 µM, first compound 0.1 µM",82.9%
same,"viability, T/C",[4],94%
same,"viability, T/C","second compound 0.1 µM, first compound 1 µM",92.2%
same,"viability, T/C","second compound 0.1 µM, first compound 3.16 µM",86.8%
same,"viability, T/C","second compound 0.1 µM, first compound 10 µM",57.2%
same,"viability, T/C",[5],110%
same,"viability, T/C","second compound 0.316 µM, first compound 0.1 µM",102%
same,"viability, T/C",[6],98.9%
same,"viability, T/C","second compound 0.316 µM, first compound 1 µM",89.3%
same,"viability, T/C","second compound 0.316 µM, first compound 3.16 µM",89.5%
same,"viability, T/C","second compound 0.316 µM, first compound 10 µM",60%
same,"viability, T/C",[7],75.7%
same,"viability, T/C","second compound 1 µM, first compound 0.1 µM",87.4%
same,"viability, T/C",[8],99.2%
same,"viability, T/C","second compound 1 µM, first compound 1 µM",87.7%
same,"viability, T/C","second compound 1 µM, first compound 3.16 µM",83.1%
same,"viability, T/C","second compound 1 µM, first compound 10 µM",43.5%
same,"viability, T/C",[9],98.2%
same,"viability, T/C","second compound 3.16 µM, first compound 0.1 µM",78.3%
same,"viability, T/C",[10],103%
same,"viability, T/C","second compound 3.16 µM, first compound 1 µM",80.2%
same,"viability, T/C","second compound 3.16 µM, first compound 3.16 µM",83.3%
same,"viability, T/C","second compound 3.16 µM, first compound 10 µM",34.7%
same,"viability, T/C",[11],70.8%
same,"viability, T/C","second compound 10 µM, first compound 0.1 µM",60.3%
same,"viability, T/C",[12],44.7%
same,"viability, T/C","second compound 10 µM, first compound 1 µM",29.6%
same,"viability, T/C","second compound 10 µM, first compound 3.16 µM",15.8%
same,"viability, T/C","second compound 10 µM, first compound 10 µM",5.05%
CC[C@@]1(O)C(=O)OCc2c1cc1n(c2=O)Cc2cc3c(CN(C)C)c(O)ccc3nc2-1 + CN(C)c1ccc(Nc2c3ccc(NC(=O)CCN4CCCC4)cc3nc3cc(NC(=O)CCN4CCCC4)ccc23)cc1,pIC50,second compound 0.0316 µM,< 6.50
same,pIC50,second compound 0.1 µM,< 6.50
same,pIC50,second compound 0.316 µM,7.01
same,pIC50,second compound 1 µM,7.06
same,pIC50,second compound 3.16 µM,6.65
same,pIC50,second compound 10 µM,7.12
same,"viability, T/C","second compound 0.0316 µM, first compound 0.000999 µM",84.4%
same,"viability, T/C","second compound 0.0316 µM, first compound 0.00316 µM",84.2%
same,"viability, T/C","second compound 0.0316 µM, first compound 0.00999 µM",105%
same,"viability, T/C",[1],91.4%
same,"viability, T/C","second compound 0.0316 µM, first compound 0.0999 µM",54.6%
same,"viability, T/C",[2],59.4%
same,"viability, T/C","second compound 0.1 µM, first compound 0.000999 µM",99.4%
same,"viability, T/C","second compound 0.1 µM, first compound 0.00316 µM",95.9%
same,"viability, T/C","second compound 0.1 µM, first compound 0.00999 µM",95.3%
same,"viability, T/C",[3],75.5%
same,"viability, T/C","second compound 0.1 µM, first compound 0.0999 µM",56.6%
same,"viability, T/C",[4],56.5%
same,"viability, T/C","second compound 0.316 µM, first compound 0.000999 µM",95.8%
same,"viability, T/C","second compound 0.316 µM, first compound 0.00316 µM",104%
same,"viability, T/C","second compound 0.316 µM, first compound 0.00999 µM",101%
same,"viability, T/C",[5],72.8%
same,"viability, T/C","second compound 0.316 µM, first compound 0.0999 µM",48.5%
same,"viability, T/C",[6],50.5%
same,"viability, T/C","second compound 1 µM, first compound 0.000999 µM",84.3%
same,"viability, T/C","second compound 1 µM, first compound 0.00316 µM",91.8%
same,"viability, T/C","second compound 1 µM, first compound 0.00999 µM",92%
same,"viability, T/C",[7],102%
same,"viability, T/C","second compound 1 µM, first compound 0.0999 µM",42.6%
same,"viability, T/C",[8],45.8%
same,"viability, T/C","second compound 3.16 µM, first compound 0.000999 µM",97.8%
same,"viability, T/C","second compound 3.16 µM, first compound 0.00316 µM",89.9%
same,"viability, T/C","second compound 3.16 µM, first compound 0.00999 µM",86.4%
same,"viability, T/C",[9],94.6%
same,"viability, T/C","second compound 3.16 µM, first compound 0.0999 µM",57.5%
same,"viability, T/C",[10],46.8%
same,"viability, T/C","second compound 10 µM, first compound 0.000999 µM",66.9%
same,"viability, T/C","second compound 10 µM, first compound 0.00316 µM",90.9%
same,"viability, T/C","second compound 10 µM, first compound 0.00999 µM",81.5%
same,"viability, T/C",[11],62.6%
same,"viability, T/C","second compound 10 µM, first compound 0.0999 µM",48.5%
same,"viability, T/C",[12],42.3%
